Measurements reported in patent US20180353512A1, “COMBINATION THERAPIES FOR TREATING B-CELL MALIGNANCIES” (GILEAD SCIENCES, INC., priority 2015, published 2018).
Like-named read-outs stand apart in the source and are kept apart here.

Experiments:
Assay type in all cases: cell-based
TMD8 = assay: CellTiter-Glo viability assay at 96 h (Example 5); details: Homo sapiens
Procedure: (§1) Growth inhibition to Idelalisib or other inhibitors was assessed using CellTiter-Glo viability assay at 96 h. […] Cell lines were analyzed by whole exome sequencing, RNASeq, and phosphoproteomics. Protein expression was measured using Simple Western and SDS/PAGE and western blot. Caspase 3/7 was measured using Caspase-Glo 3/7 assay; apoptosis was measured with Annexin V assay and propidium iodide by flow cytometry.
(§2) Cell viability EC50 was determined using a sigmoidal dose-response (variable slope) curve generated from quadruplicate samples. Statistical significance was determined using the student's t-test for cell viability and two-tailed paired t-test for apoptosis experiments in Prism (GraphPad).

FSCCL (WSU-FSCCL) = assay: CellTiter Glo viability assay after 96 h; details: read-out: EC50, cell viability
Procedure: (§3) Idelalisib resistance was established by continuous passaging of a clonal isolate of WSU-FSCCL in the presence of 1 μM idelalisib; clonal isolates from a passage-matched line (FSCCL^S) and idelalisib-resistant line (FSCCL^R) were generated through 2 rounds of single-cell-limiting dilution. Growth inhibition to idelalisib or other inhibitors was performed after 96 h using CellTiter Glo viability assay. Characterization of mutations and gene expression were identified by whole exome sequencing and RNA-Seq, respectively. Whole cell lysates were analyzed by western blots.

[1] = test system: FSCCL^R clone 3 (PI3KCA P539R); assay: CellTiter Glo viability assay after 96 h
Procedure: as §3

[2] = test system: FSCCL^R clone 2 (PI3KCA N345K); assay: CellTiter Glo viability assay after 96 h
Procedure: as §3

FSCCL^S = assay: CellTiter Glo viability assay after 96 h; details: read-out: EC50
Procedure: as §3

[3] = test system: FSCCL^R clone 1 (PI3KCA E970K); assay: CellTiter Glo viability assay after 96 h
Procedure: as §3

FSCCL^R SFK^HIGH = assay: CellTiter Glo viability assay after 96 h
Procedure: as §3

[4] = test system: TMD8^R (Idelalisib-resistant line); assay: CellTiter-Glo viability assay at 96 h; details: read-out: EC50, cell viability
Procedure: as §1, §2
(§4) Idelalisib-resistant (TMD8^R) cell line and passage-matched Idelalisib-sensitive (TMD8^S) cell line were generated according to the procedure described in Example 5 above. To characterize the resistant cells, cell viability assays, RNASeq of multidrug resistance (MDR) family of ABC transporter genes (N=33), apoptosis assays, and phosphoprotein analysis were performed. Cell viability was measured using CellTiter-Glo, as described in Example 1A above. Western blot and protein level analysis were performed after treatment with 420 nM idelalisib, 320 nM Compound B and combination thereof, using Peggy Sue (ProteinSimple) automated Western Blot system. Protein concentration (pg/μL) was quantitated using recombinant protein standards. Normalized AUC were determined for each of the treatment groups, normalized to actin. Apoptosis was assessed by propidium iodide and Annexin V/FITC staining and measured by flow cytometry, as described in Example 1A above. Western Blot with anti-p-AKT (S473) antibody and Peggy Sue were used to determine the phosphorylation state of downstream signaling components.

[5] = test system: TMD8^S (DMSO passage matched, idelalisib-sensitive line); assay: CellTiter-Glo viability assay at 96 h; details: read-out: EC50, cell viability
Procedure: as §1, §2, §4

TMD8^R cells = assay: Apoptosis, Annexin V assay and propidium iodide by flow cytometry; details: Annexin V at 48 h, Idelalisib=1 μM
Procedure: as §1

Ri-1 cells = assay: CellTiter-Glo cell viability assay, four days (Example 1A); details: Ri-1; single agent
Procedure: (§5) In vitro anti-proliferative activity of agents was assessed using CellTiter-Glo™ Assay (Promega), which quantifies cellular ATP level. Test compounds were dissolved in DMSO to prepare 10 mM stock solutions. […] For drug combination studies, a two or three fold horizontal serial dilution pattern was used for Compound B and combined with Idelalisib using a two, three, or four fold vertical serial dilution pattern. […] The final DMSO concentration in the test media was 0.2%. Each combination used replicates of four plates to generate sufficient data for evaluation of synergy scores. […] The assay growth medium for all lines was RPMI supplemented with 20% FBS and […] penicillin-streptomycin. Seeding density was optimized for growth rate over 96 hours for each cell line and was between 10,000-30,000 cells per well of 96 well plates. After four days incubation with agents at 37° C./5% CO2, the CellTiter-Glo™ assay was performed following the manufacturer's protocol. Relative luminescence units were quantified using a Biotek Synergy luminometer.
(§6) Data from a plate was excluded if either Z′<0.5 or the growth of the cell lines was less than one doubling in the four day assay period. Z′ was calculated using the formula: Z′=[1−((3(σstau+σDMSO))/(|μDMSO−μstau|)] where σstau and σDMSO are the standard deviation of the 100% inhibited staurosporine and 0% inhibited DMSO control wells, respectively. μDMSO and μstau are the mean of the […] control wells, respectively. The raw Cell Titer Glo signal was normalized according to the following formula: [(raw value)−(100% inhibited staurosporine control)]/[(DMSO control value)−(100% inhibited staurosporine control)].
(§7) EC50 was determined using GraphPad Prism or Dose Response software by fitting the data to a four parameters variable slope model. […] For combination studies, the EC50 at each test article concentration was determined from graphs of the EC50 of one compound at a fixed dose of second compound. The EC50 shift was calculated by taking the ratio of the EC50 of the single agent by the EC50 at the maximum dose of the second agent.
(§8) Synergy was analyzed using the MacSynergy II program, which calculates a theoretical additive value for the drug combination that is based on the values generated by each drug alone using the Bliss Independence mathematical model. The Bliss independence model assumes that each drug acts independently. The theoretical additive effect for each compound is calculated and then subtracted from the actual effect. Synergy is defined by greater than expected effects while antagonism is defined by less than expected effects. In this example, a synergy volume greater than 50 was considered significant. The EC50 values determined in drug combination studies represent a single experiment run in quadruplicate and therefore may differ slightly from the single agent EC50 values.

OCI-LY10 cells = assay: as above; details: OCI-LY10; single agent
Procedure: as §5, §6, §7, §8

TMD-8 cells = assay: as above; details: TMD-8; single agent
Procedure: as §5, §6, §7, §8

[6] = read-out: EC50 BYL-719 (+IDELA 0.6 μm)
[7] = FIGS. 11A, 13A, printed with 1 μM of each named agent

## Cc1cc([C@@H](C)Nc2ccccc2C(=O)O)c2nc(N3CCOCC3)cc(=O)n2c1 [AZD-6482]
TMD8
  EC50: 520 nM
FSCCL (WSU-FSCCL)
  EC50: 4600 nM

## Cc1nc(NC(=O)N2CCC[C@H]2C(N)=O)sc1-c1ccnc(C(C)(C)C(F)(F)F)c1 [BYL-719]
TMD8
  EC50: 1200 nM
[1]; [6]
  EC50: 239 nM
[1]; single agent, read-out: EC50
  EC50: > 3000 nM
[2]; [6]
  EC50: 143 nM
[2]; single agent, read-out: EC50
  EC50: 1540 nM
FSCCL^S; PI3KCA WT, Table 13, single agent
  EC50: 1610 nM
FSCCL (WSU-FSCCL)
  EC50: > 10000 nM
[3]; [6]
  EC50: 123 nM
[3]; single agent, read-out: EC50
  EC50: 2120 nM

## Cc1nc(Nc2ncc(C(=O)Nc3c(C)cccc3Cl)s2)cc(N2CCN(CCO)CC2)n1 [Dasatinib]
FSCCL^S; Table 14, single agent
  EC50: 34 nM
FSCCL^R SFK^HIGH; read-out: EC50 Dasatinib (+IDELA 600 nM)
  EC50: 15 nM
FSCCL^R SFK^HIGH; single agent, read-out: EC50 Dasatinib
  EC50: 58 nM

## C[C@H](Nc1nc[nH]c2ncnc1-2)c1cc2cccc(Cl)c2c(=O)n1-c1ccccc1 [Duvelisib, 8-Chloro-2-phenyl-3-[(1S)-1-(3H-purin-6-ylamino)ethyl]-1(2H)-isoquinolinone]
[4]; TMD8^R, single agent
  EC50: > 4000 nM
[5]; single agent
  EC50: 580 nM

## c1cn2cc(-c3ccc4cn[nH]c4c3)nc(Nc3ccc(N4CCOCC4)cc3)c2n1 [ENTO]
FSCCL^S; Table 15, single agent
  EC50: 1800 nM
FSCCL^R SFK^HIGH; read-out: EC50 ENTO (+IDELA 600 nM)
  EC50: 1920 nM

## CS(=O)(=O)N1CCN(Cc2cc3nc(-c4cccc5[nH]ncc45)nc(N4CCOCC4)c3s2)CC1 [GDC-0941]
TMD8
  EC50: 27 nM

## CNc1nc(-c2ccc3c(N)n[nH]c3c2)cc(N2C[C@@H](C(=O)NC3CCCCC3)CC[C@H]2C)n1 [GSK-2334470]
[4]; [7]
  EC50: < 10000 nM
TMD8^R cells; GSK-2334470=1 μM, vehicle control 22%
  apoptosis: 21%

## C=CC(=O)N1CCC[C@@H](n2nc(-c3ccc(Oc4ccccc4)cc3)c3c(N)ncnc32)C1 [Ibrutinib, 1-[(3R)-3-[4-Amino-3-(4-phenoxyphenyl)-1H-pyrazolo[3,4-d]pyrimidin-1-yl]piperidin-1-yl]prop-2-en-1-one]
Ri-1 cells
  growth of cell line: inhibited the growth
OCI-LY10 cells
  growth of cell line: inhibited the growth
TMD-8 cells
  growth of cell line: inhibited the growth
[5]; unit inferred
  EC50: 0.5 nM

## NC1(c2ccc(-c3nc4ccn5c(=O)[nH]nc5c4cc3-c3ccccc3)cc2)CCC1 [MK-2206]
[4]; [7]
  EC50: < 10000 nM
TMD8^R cells; MK-2206=1 μM, vehicle control 24%
  apoptosis: 33%
